Key:
TRPV4 channel receptors [1] = target: T1, TRPV4 channel receptors (Bos taurus, UniProt A0A8F4X677); test: Ca2+ influx through TRPV4 channel receptors, Fura-2 fluorescence on FlexStation, bovine articular chondrocytes; format: cell-based; details: Fura-2, FlexStation
T1 construct: obtained using this method in bovine articular chondrocytes; endogenous in cells; host or cells: bovine articular chondrocytes
Excerpt: (§1) Ca^2+ influx mediated through TRPV4 channel receptors can be measured using articular chondrocytes from such species as, but not limited to, human, rat, canine, rabbit, monkey, and bovine, using standard techniques in the art such as, but not limited to, Fura-2 (Invitrogen/Molecular Probes, Eugene, Oreg.) fluorescence using a FlexStation (manufactured by Molecular Devices, Sunnyvale, Calif.). Table 1 lists biological data for several representative compounds obtained using this method in bovine articular chondrocytes.
(§2) All exemplary compounds of the present invention were assessed using at least one of the biological assays presented above. Compounds presented in the Examples had EC50 values of about 0.01 μM to 10 μM as measured by Flex Station using bovine and/or human articular chondrocytes.

TRPV4 channel receptors [2] = target: T2, TRPV4 channel receptors (Homo sapiens, UniProt Q9HBA0); test: Ca2+ influx through TRPV4 channel receptors, Fura-2 fluorescence on FlexStation, human articular chondrocytes; format: cell-based; details: Fura-2, FlexStation
T2 construct: obtained using this method in human articular chondrocytes; endogenous in cells; host or cells: human articular chondrocytes
Excerpt: as §1
Table 2 lists biological data for several representative compounds obtained using this method in human articular chondrocytes.
as §2

T2 sequence (Q9HBA0 whole entry): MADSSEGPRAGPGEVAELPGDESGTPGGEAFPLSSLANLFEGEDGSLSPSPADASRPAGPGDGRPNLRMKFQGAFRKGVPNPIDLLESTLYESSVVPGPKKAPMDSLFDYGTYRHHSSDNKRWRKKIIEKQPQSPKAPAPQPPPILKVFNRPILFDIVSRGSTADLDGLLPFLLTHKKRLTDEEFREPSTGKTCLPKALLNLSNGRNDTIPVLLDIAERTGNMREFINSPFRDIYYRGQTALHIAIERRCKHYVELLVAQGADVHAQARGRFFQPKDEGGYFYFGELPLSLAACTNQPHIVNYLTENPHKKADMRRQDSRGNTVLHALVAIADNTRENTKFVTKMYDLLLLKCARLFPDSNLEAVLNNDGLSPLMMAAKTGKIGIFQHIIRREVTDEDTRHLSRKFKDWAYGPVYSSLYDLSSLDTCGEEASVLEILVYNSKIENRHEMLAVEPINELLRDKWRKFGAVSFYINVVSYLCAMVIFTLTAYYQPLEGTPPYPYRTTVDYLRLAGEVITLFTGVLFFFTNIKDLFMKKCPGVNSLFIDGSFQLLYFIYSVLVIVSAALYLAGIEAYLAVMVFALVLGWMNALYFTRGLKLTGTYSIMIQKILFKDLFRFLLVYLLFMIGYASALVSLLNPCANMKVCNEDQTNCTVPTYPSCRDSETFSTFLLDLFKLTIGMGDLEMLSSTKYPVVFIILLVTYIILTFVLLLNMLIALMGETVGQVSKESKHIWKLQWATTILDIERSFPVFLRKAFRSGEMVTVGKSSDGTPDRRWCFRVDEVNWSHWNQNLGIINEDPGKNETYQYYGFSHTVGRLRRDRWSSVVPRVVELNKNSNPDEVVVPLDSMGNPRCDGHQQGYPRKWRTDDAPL
T1 sequence (A0A8F4X677 1-871): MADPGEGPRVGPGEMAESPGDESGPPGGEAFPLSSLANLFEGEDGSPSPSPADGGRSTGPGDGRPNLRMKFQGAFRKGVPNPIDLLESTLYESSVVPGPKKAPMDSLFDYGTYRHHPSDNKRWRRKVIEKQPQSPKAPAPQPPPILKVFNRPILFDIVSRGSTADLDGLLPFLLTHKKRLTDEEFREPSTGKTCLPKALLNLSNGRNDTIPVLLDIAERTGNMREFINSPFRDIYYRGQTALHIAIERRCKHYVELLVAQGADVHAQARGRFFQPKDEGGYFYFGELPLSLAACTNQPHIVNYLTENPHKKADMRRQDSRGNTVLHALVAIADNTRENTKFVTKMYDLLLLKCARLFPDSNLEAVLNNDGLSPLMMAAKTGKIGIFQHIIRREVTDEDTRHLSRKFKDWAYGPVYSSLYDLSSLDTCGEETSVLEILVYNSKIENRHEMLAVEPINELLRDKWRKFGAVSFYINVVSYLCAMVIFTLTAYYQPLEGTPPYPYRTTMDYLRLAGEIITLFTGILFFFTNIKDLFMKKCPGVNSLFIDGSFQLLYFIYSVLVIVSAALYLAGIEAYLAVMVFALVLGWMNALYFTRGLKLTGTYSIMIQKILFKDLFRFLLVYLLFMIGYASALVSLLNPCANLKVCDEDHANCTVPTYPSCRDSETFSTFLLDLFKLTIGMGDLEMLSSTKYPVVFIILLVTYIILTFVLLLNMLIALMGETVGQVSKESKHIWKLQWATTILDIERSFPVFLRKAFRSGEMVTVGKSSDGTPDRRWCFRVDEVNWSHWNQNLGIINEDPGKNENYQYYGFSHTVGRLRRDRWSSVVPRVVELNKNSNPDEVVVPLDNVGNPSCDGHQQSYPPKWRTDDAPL

Structure (SMILES): CC(C)C[C@H](NC(=O)c1cc2ccccc2s1)C(=O)NCCCCNS(=O)(=O)c1ccc(F)cc1Cl [Example 5, N-((1S)-1-{[(4-{[(2-Chloro-4-fluorophenyl)sulfonyl]amino}butyl)amino]carbonyl}-3-methylbutyl)-1-benzothiophene-2-carboxamide]
- EC50 (TRPV4 channel receptors [1]): 70 to 100 nM

Structure (SMILES): Cc1c(C(=O)N[C@@H](CC(C)C)C(=O)NCCCCNS(=O)(=O)c2ccc(Cl)cc2Cl)oc2cccnc12 [Example 6, N-((1S)-1-{[(4-{[(2,4-Dichlorophenyl)sulfonyl]amino}butyl)amino]carbonyl}-3-methylbutyl)-3-methylfuro[3,2-b]pyridine-2-carboxamide]
- EC50 (TRPV4 channel receptors [2]): 100 to 1000 nM

Structure (SMILES): CC(C)C[C@H](NC(=O)c1cc2ccccc2s1)C(=O)NCCCCNS(=O)(=O)c1ccc(Br)cc1Cl [Example 3, N-((1S)-1-{[(4-{[(4-Bromo-2-chlorophenyl)sulfonyl]amino}butyl)amino]carbonyl}-3-methylbutyl)-1-benzothiophene-2-carboxamide]
- EC50 (TRPV4 channel receptors [2]): 30 to 90 nM
- EC50 (TRPV4 channel receptors [1]): 30 to 60 nM

Structure (SMILES): CC(C)C[C@H](NC(=O)c1nc2ccccc2s1)C(=O)NCCCCNS(=O)(=O)c1ccc(F)cc1Cl [Example 50, N-((1S)-1-{[(4-{[(2-Chloro-4-fluorophenyl)sulfonyl]amino}butyl)amino]carbonyl}-3-methylbutyl)-1,3-benzothiazole-2-carboxamide]
- EC50 (TRPV4 channel receptors [2]): 1000 to 10000 nM
